Results as given in patent US9145415B2, “Nitrogen-containing heterocyclic compound or salt thereof” (FUJIFILM Corporation, priority 2012, dated 2015).
Where two headings read alike, the source gives them in different places.

Key:
Molm-13 cells = assay: Leukemia cell proliferation inhibition test (ATPlite), Molm-13; type: cell-based; settings: Homo sapiens, read-out: MOLM13 cell proliferation inhibition effect
Experimental: (§1) A leukemia cell proliferation inhibition test was performed for the compounds of the present invention by using the leukemia cell strains MV4-11 (ATCC Number, CRL-9591) and Molm-13 (DSMZ Number, ACC554).
(§2) The leukemia cell proliferation inhibition test was performed by the method described below.
(§3) For the purpose of measuring proliferation inhibition attained with a compound, the total cell count was quantified on the basis of the total cellular ATP concentration using the ATPlite (PerkinElmer) reagent utilizing firefly luciferase. The Molm-13 or MV4-11 cells were added to the RPMI medium containing penicillin and streptomycin (penn/strep) and 10% FBS at a density of 2×10^5 cells/ml, and 50 μL (10,000 cells) of the cell suspension was inoculated to each well of a 96-well plate (Corning).
(§4) A serially diluted solution of a compound or 0.1% DMSO (solvent control) in a volume of 50 μL was added to the cells, and then the cells were cultured for 72 hours under the standard cell proliferation conditions (37° C., 5% CO2) to allow proliferation of the cells. In order to measure the proliferation of the total cells, equal volume of the ATPlite reaction mixture was added to each well in accordance with the instructions attached to ATPlite, and then luminescence count of the well was measured (relative light unit, RLU).
(§5) The RLU signal observed with the DMSO solvent control after 72 hours of the culture was defined as a signal indicating 0% inhibition, and the GI50 value for the proliferation inhibition corresponds to a concentration of a compound that provides 50% inhibition based on the proliferation of the total cells contained in the DMSO solvent control. Each data point was obtained from samples in duplicate. The GI50 values were calculated by the non-linear regression fitting (Fit Model (205)) according to a sigmoid dose-reaction equation using the XLfit software.

[1] = target: T1, human FLT3 protein (FLT3 (WT)) (Homo sapiens, UniProt P36888); assay: FLT3 inhibition test (FLT3 enzyme inhibition, time-resolved fluorescence of substrate peptide phosphorylation); type: biochemical; settings: read-out: FLT3 (WT) enzyme inhibition activity
T1 construct: human FLT3 protein (intracellular region, 564 to 993 aa); GST; purchased Carna Biosciences; host or cells: baculovirus expression system
T1 sequence (P36888 564-993): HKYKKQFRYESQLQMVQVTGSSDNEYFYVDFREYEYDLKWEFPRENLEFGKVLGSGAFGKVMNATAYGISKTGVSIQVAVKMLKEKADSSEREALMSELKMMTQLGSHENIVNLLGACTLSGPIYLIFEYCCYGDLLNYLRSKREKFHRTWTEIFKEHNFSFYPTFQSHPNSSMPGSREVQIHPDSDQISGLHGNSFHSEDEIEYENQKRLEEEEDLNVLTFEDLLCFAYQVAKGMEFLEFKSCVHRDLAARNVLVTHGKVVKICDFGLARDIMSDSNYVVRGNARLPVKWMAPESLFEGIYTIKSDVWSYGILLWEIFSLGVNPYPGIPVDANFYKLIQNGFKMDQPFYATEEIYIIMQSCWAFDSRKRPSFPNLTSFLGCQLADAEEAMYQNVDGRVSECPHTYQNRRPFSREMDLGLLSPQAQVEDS
Experimental: The FLT3 inhibition test was performed for the compounds of the present invention by the method described below.
A reaction mixture in a volume of 9 μL containing the FLT3 protein and a test compound of a predetermined concentration (1.2 μg of FLT3, 100 mM HEPES, 10 mM MgCl2, 25 mM NaCl, 0.01% BSA, 1 mM DTT, pH 7.5) was left standing at 25° C. for 15 minutes. […] (Toray Industries), and 3 μL (final concentration 50 μM) of ATP (Sigma-Aldrich) were added to the reaction mixture, and the mixture was shaken for 2 minutes, and then further left standing at 25° C. for 30 minutes to allow the enzymatic reaction.

MV4-11 cells = assay: Leukemia cell proliferation inhibition test (ATPlite), MV4-11; type: cell-based; settings: Homo sapiens, read-out: MV4-11 cell proliferation inhibition effect
Experimental: as §1, §2, §3, §4, §5

[2] = MOLM-13, 72 h, Molm-13, 72 hours culture, ATPlite, GI50 per method
[3] = GST-fused human FLT3 (564 to 993 aa), ATP 50 μM
[4] = MV4-11, 72 h, MV4-11, 72 hours culture, ATPlite, GI50 per method

IC50 (Molm-13 cells; [2]) [nM] | IC50 [1, 3] [nM] | IC50 (MV4-11 cells; [4]) [nM] | IC50 (Molm-13 cells; MOLM-13, MOLM13 cell) [nM] | IC50 ([1]; FLT3 (WT)) [nM] | IC50 (MV4-11 cells; MV4-11, MV4-11 cell) [nM] | Structure (SMILES)
< 10 | < 10 | < 10 | – | – | – | CNc1nc(Nc2ccc3cnn(C)c3c2)ncc1C#CCCCNC(=O)[C@H](C)N(C)C(=O)/C=C/CN(C)C [Compound 10-56]
< 10 | < 10 | < 10 | – | – | – | CCCNc1nc(Nc2ccc(C#N)c(C)c2)ncc1C#CCCCNC(=O)[C@H](C)N(C)C(=O)/C=C/CN(C)C [Compound 21-3]
– | – | – | < 10 | < 10 | < 10 | CNc1nc(Nc2ccc(F)cc2)ncc1C#C[C@@H]1CCC[C@H](NC(=O)[C@H](C)N(C)C(=O)/C=C/CN(C)C)C1 [Compound 21-41]
100 to 1000 | 10 to 100 | 10 to 100 | – | – | – | CCCNc1nc(Nc2cccc(F)c2)ncc1C#Cc1cccc(NC(=O)[C@H](C)N(C)C(=O)/C=C/CN(C)C)n1 [Compound 8-20]
< 10 | < 10 | < 10 | – | – | – | CN(C)C/C=C/C(=O)N1CCC[C@H]1C(=O)N[C@H]1C[C@@H](C#Cc2cnc(Nc3cccc(F)c3)nc2NC2CC2)C1 [Compound 15-11]
< 10 | < 10 | < 10 | – | – | – | CCCNc1nc(Nc2cccc(F)c2)ncc1C#CCCCNC(=O)[C@@H]1C[C@H](OC)CN1C(=O)/C=C/CN(C)C [Compound 7-59]
< 10 | < 10 | < 10 | – | – | – | CCCNc1nc(Nc2ccc3c(cnn3C)c2)ncc1C#CCCCNC(=O)[C@H](C)N(C)C(=O)/C=C/CN(C)C [Compound 21-6]
< 10 | < 10 | < 10 | – | – | – | COc1ccc(Nc2ncc(C#CCCCNC(=O)[C@H](C)N(C)C(=O)/C=C/CN(C)C)c(NC3CC3)n2)cc1F [Compound 7-42, (S,E)-N-(1-((5-(4-(Cyclopropylamino)-2-((3-fluoro-4-methoxyphenyl)amino)pyrimidin-5-yl)-4-pentyn-1-yl)amino)-1-oxopropan-2-yl)-4-(dimethylamino)-N-methyl-2-butenamide]
< 10 | < 10 | < 10 | – | – | – | CCCNc1nc(Nc2cccc(OC(F)F)c2)ncc1C#CCCCNC(=O)[C@H](C)N(C)C(=O)/C=C/CN(C)C [Compound 9-28]
< 10 | < 10 | < 10 | – | – | – | CNc1nc(Nc2ccc(F)cc2)ncc1C#C[C@H]1C[C@@H](NC(=O)[C@H](C)N(C)C(=O)/C=C/CN(C)C)C1 [Compound 13-19, (E)-4-(Dimethylamino)-N—((S)-1-(((1S,3R)-3-((2-((4-fluorophenyl)amino)-4-(methylamino)pyrimidin-5-yl)ethynyl)cyclobutyl)amino)-1-oxopropan-2-yl)-N-methyl-2-butenamide]
< 10 | < 10 | < 10 | – | – | – | CC(C)CNc1nc(Nc2ccc(C#N)cc2)ncc1C#CCCCNC(=O)[C@H](C)N(C)C(=O)/C=C/CN(C)C [Compound 10-24]
– | – | – | < 10 | < 10 | < 10 | CCCNc1nc(Nc2ccc3cnn(CCOC)c3c2)ncc1C#CCCCNC(=O)[C@@H]1CCCN1C(=O)/C=C/CN(C)C [Compound 22-33]
10 to 100 | < 10 | < 10 | – | – | – | CCCNc1nc(Nc2cccc(F)c2)ncc1C#CCCCNC(=O)[C@@H]1CCCCN1C(=O)/C=C/CN(C)C [Compound 7-46]
10 to 100 | < 10 | 10 to 100 | – | – | – | C=CC(=O)NC(C)(C)C(=O)NCCCNC(=O)c1cnc(Nc2ccc3cnccc3c2)nc1NCCC [Compound 6-7]
10 to 100 | 10 to 100 | 10 to 100 | – | – | – | C[C@@H](C(=O)NCCCC#Cc1cnc(Nc2ccc(C#N)cc2)nc1-n1cccn1)N(C)C(=O)/C=C/CN(C)C [Compound 20-2, (S,E)-N-(1-((5-(2-((4-cyanophenyl)amino)-4-(1H-pyrazol-1-yl)pyrimidin-5-yl)-4-pentyn-1-yl)amino)-1-oxopropan-2-yl)-4-(dimethylamino)-N-methyl-2-butenamide]
< 10 | < 10 | < 10 | – | – | – | CCCNc1nc(Nc2ccc(C(N)=O)cc2)ncc1C(=O)Nc1cccc(NC(=O)[C@H](C)N(C)C(=O)/C=C/CN2CC(O)C2)c1 [Compound 4-5]
< 10 | < 10 | < 10 | – | – | – | CC(C)Oc1nc(Nc2cccc(F)c2)ncc1C#C[C@@H]1CCC[C@H](NC(=O)[C@H](C)N(C)C(=O)/C=C/CN(C)C)C1 [Compound 21-21]
< 10 | < 10 | < 10 | – | – | – | CCCNc1nc(Nc2ccc(F)c(OC)c2)ncc1C#CCCCNC(=O)[C@H](C)N(C)C(=O)/C=C/CN(C)C [Compound 9-29]
< 10 | < 10 | < 10 | – | – | – | CNc1nc(Nc2ccc(F)cc2)ncc1C#CCCCNC(=O)[C@@H]1C[C@H](O)CN1C(=O)/C=C/CN(C)C [Compound 7-84]
– | – | – | < 10 | < 10 | < 10 | CCCNc1nc(Nc2cnc3c(cnn3CCOC)c2)ncc1C#CCCCNC(=O)[C@@H]1CCCN1C(=O)/C=C/CN(C)C [Compound 22-44, (S,E)-1-(4-(Dimethylamino)-2-butenoyl)-N-(5-(2-((1-(2-methoxyethyl)-1H-pyrazolo[3,4-b]pyridin-5-yl)amino)-4-(propylamino)pyrimidin-5-yl)-4-pentyn-1-yl)pyrrolidine-2-carboxamide]
< 10 | < 10 | < 10 | – | – | – | CCCNc1nc(Nc2ccc(C#N)cc2)ncc1C#CCCCNC(=O)CN(Cc1ccccc1)C(=O)/C=C/CN(C)C [Compound 7-43]
100 to 1000 | < 10 | 100 to 1000 | – | – | – | CCCNc1nc(Nc2ccc(C(N)=O)cc2)ncc1C(=O)Nc1ccccc1CNC(=O)[C@H](C)N(C)C(=O)/C=C/CN(C)C [Compound 3-15]
10 to 100 | < 10 | 10 to 100 | – | – | – | C=CC(=O)N(C)[C@@H](C)C(=O)NCCCNC(=O)c1cnc(Nc2ccc(C(N)=O)cc2)nc1NCCC [Compound 5-3]
10 to 100 | < 10 | < 10 | – | – | – | CCCNc1nc(Nc2ccc(C)nc2)ncc1C#CCCCNC(=O)[C@H](C)N(C)C(=O)/C=C/CN(C)C [Compound 21-17]
< 10 | – | < 10 | – | – | – | CCCNc1nc(Nc2ccc(C#N)cc2)ncc1C#CCCCNC(=O)[C@H](C)N(C)C(=O)/C=C/CN(C)C [Compound 7-5, (S,E)-N-(1-((5-(2-((4-Cyanophenyl)amino)-4-(propylamino)pyrimidin-5-yl)-4-pentyn-1-yl)amino)-1-oxopropan-2-yl)-4-(dimethylamino)-N-methyl-2-butenamide]
100 to 1000 | – | 10 to 100 | – | – | – | CCCNc1nc(Nc2ccc(C(N)=O)cc2)ncc1C(=O)NCCCNC1CCCC[C@@H]1NC(=O)/C=C/CN(C)C (stereo partly shown) [Compound 3-25]
< 10 | – | < 10 | – | – | – | CCCNc1nc(Nc2ccc(C#N)cc2)ncc1C#CCCCNC(=O)[C@@H](C)N(C)C(=O)/C=C/CN(C)C [Compound 7-32]
– | < 10 | – | – | – | – | CCCNc1nc(Nc2ccc(C(N)=O)cc2)ncc1C(=O)NCCCN[C@@H]1CCCC[C@@H]1NC(=O)/C=C/CN(C)C [Compound 3-25]
